This is an account of results in EP0364581A1, “METHOD OF STERILIZING PLANT POLLEN” (VSESOJUZNY NAUCHNO-ISSLEDOVATELSKY INST. SELSKOKHOZYAISTV. …, priority 1988, dated 1989).

Assay in all cases: field test of gametocidal activity (sterilisation of anthers)
Holding throughout (format): in vivo

Test [1] has as its system Tritikale der Sorte PRAG-109. Conditions: V. Periode, 1%ige wäßrige Emulsion, 10 kg/ha; for Prozentsatz des Ansetzens der Körner bei freier Bestäubung: control = 100. The text has this:
(§1) Die gametozide Aktivität der erfindungsgemäßen Sterilisationsmittel war in Feldversuch in verschiedenen bodenklimatischen Zonen mit Teilstücken von 10 m^2 Größe in drei-- bis viermaliger Wiederholung nachgewiesen. Jedes Sterilisationsmittel wurde mindestens 5 Jahre lang geprüft.
(§2) Die Entwicklung der Perioden der Organogenese wird zytologisch überwacht. Die Behandlung von Pflanzen mit dem Sterilisationsmittel erfolgt am Anfang der fünften Periode der Organogenese nach Kupermann.
(§3) Mit dem Ahrenschieben verwirklicht man die Isolierung von Hauptähren und anderen Stockwerken in Pergamentbeuteln. Bei Weizen und Tritikale werden Einzelisolatoren verwendet. Bei Roggen schließt man je 1 Ähre von 5 bis 7 verschiedenen nebeneinander befindlichen Pflanzen in einen gemeinsamen Isolator ein. Bei Hirse wird jede Rispe getrennt isoliert. Der Sterilitätsprozentsatz (X) für Weizen, Roggen, Tritikale und Hirse wird nach der Formel [formula]
(§4) Samen von unbehandelten Kontrollpflanzen ermittelt.
(§5) Die Kornzahl in nicht isolierten Ähren von Kontrollpflanzen wird bedingt für 100% Ansetzen bei freier Bestäubung angenommen.
(§6) Um zuverlässige Angaben zu erhalten, verwendet man 20 bis 25 Isolatoren jeder Wiederholung für Weizen und Tritikale, 10 bis 15 Isolatoren jeder Wiederholung für Roggen und Hirse.
Pflanzen Tritikale der Sorte PRAG-109 werden in der V. Periode der Organogenese (nach Kupermann) mit einer 1%igen wäßrigen Emulsion von Phthalsäuredibutylester, Phthalsäurediäthylester, Phthalsäuredihexylester, Phthalsäurediisobutylester, Kaliumsalz der 2-Methyl-3-zyklohexenkarbon- säure, 2-Methyl-3-zyklohexenkarbonsäuremethylester behandelt. Die Emulsion enthält 0,01 Masse% Dimethylsulfoxid und 0,1 Masse% C12C14- Kalziumalkylbenzolsulfonat. Der Verbrauch an Präparat beträgt 10 kg/ha. Als Kontrolle dienen Pflanzen, behandelt mit einem Verdünner ohne Sterilisationsmittel. […]
In allen Fällen dienen als Kontrolle Pflanzen, behandelt mit einem Verdünner ohne Sterilisationsmittel. Die Prüfergebnisse sind in der Tabelle 20 angeführt. […] Periode der Organogenese erhalten.

In test [2] the test system is diploidem Roggen Sorte Voskhod 2. Conditions: V. Periode, 1%ige wäßrige Emulsion, 10 kg/ha; for Prozentsatz des Ansetzens der Körner bei freier Bestäubung: control = 100.
From the text: as §1, §2, §3, §4, §5, §6
Pflanzen von diploidem Roggen Sorte Voskhod 2 werden in der V. Periode der Organogenese (nach Kupermann) mit einer l%igen wäßrigen Emulsion von Phthalsäurediäthylester, Phthalsaurediisobutylester, Kaliumsalz der 2-Methyl-3-zyklohexen- karbonsäure, Ammoniumsalz der 2-Methyl-3-zyklohexenkarbon- säure, 2-Methyl-3-zyklohexenkarbonsäuremethylester, Phthalsaurediallylester behandelt.
Die Emulsion enthält 0,01 Masse% Dodezylsulfat und 0,1 Masse% C12-C14-Kalziumalkylbenzolsulfonat. Der Verbrauch an Präparat beträgt 10 kg/ha, Als Kontrolle dienen Pflanzen, behandelt mit einem Verdünner ohne Sterilisationsmittel.

Test [3] has as its system Hirse Sorte K-9693 Kormovoe I. The conditions noted are these: V. Periode, 1%ige wäßrige Emulsion, 8 kg/ha; for Prozentsatz des Ansetzens der Körner bei freier Bestäubung: control = 100.
From the text: as §1, §2, §3, §4, §5, §6
Pflanzen der Hirse Sorte K-9693 Kormovoe I werden in der V. Periode der Organogenese (nach Kupermann) mit einer 1%igen wäßrigen Emulsion von Ammoniumsalz der 2-Methyl-3-zyklo- nexenkarbonsäure, Phthalsäuredipropylester, Phthalsäuredibutylester, Phthalsäurediisobutylester, 2-Methyl-3-zyklo- hexenkarbonsäuremethylester, Phthalsäuredihexylester behandelt. Die Emulsion enthält 0,01 Masse% Dodezylsulfat und 0,1 Masse% C12-C14-Kalziumalkylbenzolsulfonat. Der Verbrauch an Präparat beträgt 8 kg/ha. Als Kontrolle dienen Pflanzen, behandelt mit einem Verdünner ohne Sterilisationsmittel. Die Prüfergebnisse sind in der Tabelle 18 angeführt. […] Periode der Organogenese erhalten.

The test system of test [4] is diploidem Roggen Sorte Kharkovskaya 55. The conditions noted are these: V. und VI. Periode, 1%ige wäßrige Emulsion, 6 kp/ha; for Prozentsatz des Ansetzens der Körner bei freier Bestäubung: control = 100.
From the text: as §1, §2, §3, §4, §5, §6
Pflanzen von diploidem Roggen Sorte Kharkovskaya 55 werden in der V. und VI. Periode der Organogenese (nach Kupermann) mit einer 1%igen wäßrigen Emulsion von Phthalsäuredibutylester, Phthalsäurediisobutylester, Phthalsäurediallylester, Phthalsäuredihexylester, 2-Methyl-3-zyklohexen- karbonsäuremethylester, Natriumsalz der 2-Methyl-3-zyklohex- enkarbonsäure behandelt. Die Emulsion enthält 0,01 Masse% Dimethylformamid und 0,1 Masse% C12C14-Kalziumalkylbenzolsulfonat.
Der Verbrauch an Präparat beträgt 6 kp/ha. Als Kontrolle dienen Pflanzen, benandelt mit einem Verdünner ohne Sterilisationsmittel.

The structures appear in SMILES notation.

On to `CCCCOC(=O)c1ccccc1C(=O)OCCCC` [Beispiel 37, Phthalsäuredibutylester], for which, in test [1], the “Kornzahl der Ähre bei freier Bestäubung” value is 62,1, the “Kornzahl der Ähre im Isolator” value is on record as 0,1, the “Prozentsatz der Sterilität” value is listed as 99,8% and the “Prozentsatz des Ansetzens der Körner bei freier Bestäubung” value is on record as 90,0%.
Take `CC(C)COC(=O)c1ccccc1C(=O)OCC(C)C` [Beispiel 77, Phthalsaurediisobutylester]: in test [2], the “Kornzahl der Ähre bei freier Bestäubung” value is listed as 52,8, the “Kornzahl der Ähre im Isolator” value is given as 0,0, the “Prozentsatz der Sterilität” value is reported as 100,0% and the “Prozentsatz des Ansetzens der Körner bei freier Bestäubung” value is on record as 96,7%.
Regarding `CC(C)COC(=O)c1ccccc1C(=O)OCC(C)C` [Beispiel 100, Phthalsäurediisobutylester], in test [3], the “Kornzahl der Rispe bei freier Bestäubung” value is on record as 110,4, the “Kornzahl der Rispe im Isolator” value is given as 0,0, the “Prozentsatz der Sterilität” value is 100,0% and the “Prozentsatz des Ansetzens der Körner bei freier Bestäubung” value is reported as 75,3%.
As to `COC(=O)C1CCC=CC1C` (stereo not shown) [Beispiel 42, 2-Methyl-3-zyklohexenkarbonsäuremethylester], in test [1], the “Kornzahl der Ähre bei freier Bestäubung” value is 64,7, the “Kornzahl der Ähre im Isolator” value was 0,0, the “Prozentsatz der Sterilität” value was 100,0% and the “Prozentsatz des Ansetzens der Körner bei freier Bestäubung” value is on record as 93,8%.
Regarding `CCOC(=O)c1ccccc1C(=O)OCC` [Beispiel 76, Phthalsäurediäthylester], in test [2], the “Kornzahl der Ähre bei freier Bestäubung” value was 53,4, the “Kornzahl der Ähre im Isolator” value was 0,2, the “Prozentsatz der Sterilität” value was 99,6% and the “Prozentsatz des Ansetzens der Körner bei freier Bestäubung” value is 97,8%.
The corresponding values for `C=CCOC(=O)c1ccccc1C(=O)OCC=C` [Beispiel 81, Phthalsaurediallylester] are 53,5, 0,8, 98,4% and 97,9%.
On to `CC1C=CCCC1C(=O)O` (stereo not shown) [Beispiel 79, Ammoniumsalz der 2-Methyl-3-zyklohexenkarbon-säure], for which, in test [2], the “Kornzahl der Ähre bei freier Bestäubung” value is reported as 51,7, the “Kornzahl der Ähre im Isolator” value is on record as 0,0, the “Prozentsatz der Sterilität” value is reported as 100,0% and the “Prozentsatz des Ansetzens der Körner bei freier Bestäubung” value was 95,0%.
In the case of `CCOC(=O)c1ccccc1C(=O)OCC` [Beispiel 38, Phthalsäurediäthylester], in test [1], the “Kornzahl der Ähre bei freier Bestäubung” value is given as 60,8, the “Kornzahl der Ähre im Isolator” value was 0,8, the “Prozentsatz der Sterilität” value is given as 98,7% and the “Prozentsatz des Ansetzens der Körner bei freier Bestäubung” value is listed as 88,1%.
For the compound `C=CCOC(=O)c1ccccc1C(=O)OCC=C` [Beispiel 70, Phthalsäurediallylester], in test [4], the “Kornzahl der Ähre bei freier Bestäubung” value is 51,2, the “Kornzahl der Ähre im Isolator” value is on record as 0,1, the “Prozentsatz der Sterilität” value is recorded as 99,8% and the “Prozentsatz des Ansetzens der Körner bei freier Bestäubung” value is reported as 97,7%.
In the case of `COC(=O)C1CCC=CC1C` (stereo not shown) [Beispiel 80, 2-Methyl-3-zyklohexenkarbonsäuremethylester], in test [2], the “Kornzahl der Ähre bei freier Bestäubung” value was 50,2, the “Kornzahl der Ähre im Isolator” value is given as 0,0, the “Prozentsatz der Sterilität” value is recorded as 100,0% and the “Prozentsatz des Ansetzens der Körner bei freier Bestäubung” value is reported as 91,9%.
For `COC(=O)C1CCC=CC1C` (stereo not shown) [Beispiel 72, 2-Methyl-3-zyklohexen-karbonsäuremethylester], in test [4], the “Kornzahl der Ähre bei freier Bestäubung” value is 48,0, the “Kornzahl der Ähre im Isolator” value is reported as 0,0, the “Prozentsatz der Sterilität” value is given as 100,0% and the “Prozentsatz des Ansetzens der Körner bei freier Bestäubung” value was 91,6%.
Regarding `CCCCOC(=O)c1ccccc1C(=O)OCCCC` [Beispiel 99, Phthalsäuredibutylester], in test [3], the “Kornzahl der Rispe bei freier Bestäubung” value is on record as 127,9, the “Kornzahl der Rispe im Isolator” value is listed as 0,0, the “Prozentsatz der Sterilität” value is 100,0% and the “Prozentsatz des Ansetzens der Körner bei freier Bestäubung” value is listed as 87,9%.
As to `CC1C=CCCC1C(=O)O` (stereo not shown) [Beispiel 41, Kaliumsalz der 2-Methyl-3-zyklohexenkarbon-säure], in test [1], the “Kornzahl der Ähre bei freier Bestäubung” value is 65,1, the “Kornzahl der Ähre im Isolator” value is 0,1, the “Prozentsatz der Sterilität” value is 99,8% and the “Prozentsatz des Ansetzens der Körner bei freier Bestäubung” value is recorded as 94,3%.
Take `CC1C=CCCC1C(=O)O` (stereo not shown) [Beispiel 78, Kaliumsalz der 2-Methyl-3-zyklohexen-karbonsäure]: in test [2], the “Kornzahl der Ähre bei freier Bestäubung” value was 52,2, the “Kornzahl der Ähre im Isolator” value is reported as 0,1, the “Prozentsatz der Sterilität” value is given as 99,8% and the “Prozentsatz des Ansetzens der Körner bei freier Bestäubung” value is reported as 95,6%.
Consider `CC1C=CCCC1C(=O)O.N` (stereo not shown) [Beispiel 97, Ammoniumsalz der 2-Methyl-3-zyklo-nexenkarbonsäure], for which, in test [3], the “Kornzahl der Rispe bei freier Bestäubung” value is reported as 121,6, the “Kornzahl der Rispe im Isolator” value is 0,0, the “Prozentsatz der Sterilität” value is 100,0% and the “Prozentsatz des Ansetzens der Körner bei freier Bestäubung” value was 82,9%.
For `CCCOC(=O)c1ccccc1C(=O)OCCC` [Beispiel 98, Phthalsäuredipropylester], in that order: 130,7, 0,0, 100,0% and 89,1%.
The corresponding values for `COC(=O)C1CCC=CC1C` (stereo not shown) [Beispiel 101, 2-Methyl-3-zyklo-hexenkarbonsäuremethylester] are 127,8, 0,0, 100,0% and 87,1%.
For the compound `CCCCCCOC(=O)c1ccccc1C(=O)OCCCCCC` [Beispiel 71, Phthalsäuredihexylester], in test [4], the “Kornzahl der Ähre bei freier Bestäubung” value is 49,7, the “Kornzahl der Ähre im Isolator” value is given as 0,0, the “Prozentsatz der Sterilität” value is given as 100,0% and the “Prozentsatz des Ansetzens der Körner bei freier Bestäubung” value is listed as 94,8%.
In the case of `CCCCCCOC(=O)c1ccccc1C(=O)OCCCCCC` [Beispiel 39, Phthalsäuredihexylester], in test [1], the “Kornzahl der Ähre bei freier Bestäubung” value is given as 61,7, the “Kornzahl der Ähre im Isolator” value was 3,0, the “Prozentsatz der Sterilität” value is listed as 95,2% and the “Prozentsatz des Ansetzens der Körner bei freier Bestäubung” value is 89,4%.
Regarding `CCCCOC(=O)c1ccccc1C(=O)OCCCC` [Beispiel 68, Phthalsäuredibutylester], in test [4], the “Kornzahl der Ähre bei freier Bestäubung” value was 48,6, the “Kornzahl der Ähre im Isolator” value is reported as 0,0, the “Prozentsatz der Sterilität” value is 100,0% and the “Prozentsatz des Ansetzens der Körner bei freier Bestäubung” value is listed as 92,7%.
The corresponding values for `CC(C)COC(=O)c1ccccc1C(=O)OCC(C)C` [Beispiel 69, Phthalsäurediisobutylester] are 50,8, 0,2, 99,6% and 96,9%.
In the case of `CC1C=CCCC1C(=O)O` (stereo not shown) [Beispiel 73, Natriumsalz der 2-Methyl-3-zyklohex-enkarbonsäure], in test [4], the “Kornzahl der Ähre bei freier Bestäubung” value is recorded as 50,1, the “Kornzahl der Ähre im Isolator” value is listed as 0,0, the “Prozentsatz der Sterilität” value is recorded as 100,0% and the “Prozentsatz des Ansetzens der Körner bei freier Bestäubung” value is listed as 95,6%.
